# Patent US20190365719A1, “COMBINATION TREATMENTS OF HSP90 INHIBITORS FOR ENHANCING TUMOR IMMUNOGENICITY AND METHODS OF USE THEREOF” (Massachusetts Institute of Technology, priority 2018, published 2019)
# System: MC38 cells
# Assay: Immunoblot analysis of MC38 cells
# Type: cell-based, mouse
# Protocol: Protein extraction was performed by washing cells 2× with PBS. A volume of lysis buffer (50 mM Tris pH 7.5, 150 mM NaCl, 1 mM EDTA, 1% Triton-X100, 0.1% SDS, 1× Halt Protease/Phosphatase inhibitor) equal to 1/10 the culture media volume was added directly to the culture dish and incubated for 2-3 min on ice. Lysates were then thoroughly scraped and pipetted into 1.5 mL tubes and incubated for an additional 30 min on ice. Lysates were then cleared by centrifugation at 14,000×g for 15 min and quantified using BCA Assay. Lysates were separated by SDS-PAGE and transferred to 0.2 μm nitrocellulose membranes prior to washing with PBST, blocking with 5% milk in PBST, and incubation with primary antibody overnight at 4° C. All primary antibodies were diluted 1:1000 in 2.5% milk in PBST. Membranes were then washed 4×5 min with PBST and incubated with HRP conjugated secondary antibody at a 1:10,000 dilution in 2.5% milk in PBST, and washed again 4×5 min with PBST. Detection of secondary antibody was performed with SuperSignal West Pico or Femto ECL reagents (Pierce) and digitally imaged on a ChemiDoc (BioRad).
# Immunoblotting was performed as described in Example 4. Briefly, protein extraction was performed by washing cells with PBS and then isolating whole cell lysates in lysis buffer (50 mM Tris pH 7.5, 150 mM NaCl, 1 mM EDTA, 1% Triton-X100, 0.1% SDS, 1× Halt Protease/Phosphatase inhibitor) Lysates were then cleared by centrifugation and quantified using BCA Assay. Lysates were separated by SDS-PAGE and transferred to 0.2 μm nitrocellulose membranes prior to washing with PBST, blocking with 5% milk in PBST, and incubation with primary antibody overnight at 4° C. All primary antibodies were diluted 1:1000 in 2.5% milk in PBST. Membranes were then washed and incubated with HRP conjugated secondary antibody. Detection of secondary antibody was performed with SuperSignal West Pico or Femto ECL reagents (Pierce) and digitally imaged on a ChemiDoc (BioRad).
compound,measurement,setting,value
COc1cccc(-c2cc(F)ccc2[C@H]2Cc3nc(N)nc(C)c3C(=O)N2)n1 [NVP-HSP990],Psmb5 protein levels,72 hours,slightly decreased Psmb5 levels
same,Psmb8 protein levels,72 hours,increased the protein levels of Psmb8
same,"expression of downstream markers of IFN-γ signaling (Stat1, Stat3, pStat3, PD-L1)",Hsp90i 60 nM or IFN-γ 10 ng/mL,minimal to undetectable effect
